ChEMBL document CHEMBL1821680, “Current status and research strategies in tuberculosis drug development” (2011)
Converted amounts (≈) assume the structure as drawn.

system: Mycobacterium tuberculosis; assay: Antituberculosis activity against Mycobacterium tuberculosis H37Rv; assay type: functional

Compound | IC90 | MIC
Cc1cccc(Nc2nc(-c3ccccn3)cs2)n1 | < 0.1 µg/mL | 
O=c1c2ccccc2nc(/C=C/c2ccc([N+](=O)[O-])o2)n1CCCO | < 0.1 µg/mL | 
Cc1cc([N+](=O)[O-])ccc1NC(=O)c1ccc(-c2ccccc2)cc1 | < 0.1 µg/mL | 
O=C(Nc1ccc(F)c(Cl)c1)C12CC3CC(CC(C3)C1)C2 | < 0.1 µg/mL | 
Cc1ccc2oc(-c3cc(NC(=O)Cc4ccccc4)ccc3Cl)nc2c1 | < 0.1 µg/mL | 
O=S1(=O)C=C(Sc2nc3ccccc3s2)c2ccccc21 | < 0.1 µg/mL | 
O=C(Nc1ccc(F)c(Cl)c1)c1ccc([N+](=O)[O-])o1 | < 0.1 µg/mL | 
CC(C)(C)c1cc(Cl)c(O)c(NC(=S)NC(=O)c2ccc3ccccc3c2)c1 | < 0.1 µg/mL | 
Clc1ccc(Nc2nc(-c3ccccn3)cs2)nc1 | < 0.1 µg/mL | 
COC(=O)c1nc(N)sc1Cc1ccccc1 |  | 0.06 µg/mL (≈ 0.242 µM)
CSc1ncc(C(=O)Nc2cccc(C(F)(F)F)c2)cn1 | < 0.1 µg/mL | 
O=C(Nc1nc(-c2ccccc2)c(-c2ccccc2)o1)c1ccc(F)cc1 | < 0.1 µg/mL | 
COc1ccc(CCNC(=O)CCc2ncc(C(C)(C)C)s2)cc1 | < 0.1 µg/mL | 
FC(F)(F)c1ccccc1Nc1nc(-c2ccccn2)cs1 | < 0.1 µg/mL | 
Cc1ccc(C(=O)Nc2ccc([N+](=O)[O-])cc2C)cc1I | < 0.1 µg/mL | 
CSc1ncnc2c1ncn2CC(=O)Nc1ccc(C)c(C)c1 | < 0.1 µg/mL | 
CC1(CNC(=O)Nc2ccc(C(F)(F)F)cc2)CC2CCC1C2 (stereo not given) | < 0.1 µg/mL | 
Cc1cccnc1Nc1nc(-c2ccccn2)cs1 | < 0.1 µg/mL | 
O=C(CC12CC3CC(CC(C3)C1)C2)Nc1ccc2ccccc2c1 | < 0.1 µg/mL | 
Cc1c(Cl)cccc1NC(=O)OC(C)(OC1CCCCC1)C(=O)O (stereo not given) | < 0.1 µg/mL | 
Cc1sc(N)nc1C(=O)O |  | 0.06 µg/mL (≈ 0.379 µM)
C[C@@H]1COC2(CCN(c3nc(=O)c4cc(C(F)(F)F)cc([N+](=O)[O-])c4s3)CC2)O1 |  | 0.001 µg/mL (≈ 0.00232 µM)
COC(=O)COc1ccc(NC(=O)COc2ccc(C)cc2C)cc1 | < 0.1 µg/mL | 
C[C@H]1COC2(CCN(c3nc(=O)c4cc(C(F)(F)F)cc([N+](=O)[O-])c4s3)CC2)O1 [BTZ-043] |  | 0.001 µg/mL (≈ 0.00232 µM)
CC(C)(C)c1ccc(C(=O)Nc2nc3ccccc3[nH]2)cc1 | < 0.1 µg/mL | 
